# Measurements taken from patent EP1263420B1 (priority 2000, dated 2001).
# Values joined by “and” are separate entries in the source; they are usually repeats but may differ in a detail not shown here. Equal values may be shown once. “Also recorded” adds a separate entry of the source.
# How the values were obtained:
# Assay type in all cases: in vivo
# [1] = test system: RAR γ; assay: Western blot of rat lung tissue after inhaled 13-cis RA; conditions: for upregulating expression of lung tissue RAR (γ): daily deposited dose of 6.4mg/kg/day
# Method: (§1) Rats (n=97) (Sprague-Dawley from Charles River) were divided into five experimental groups and were given varying amounts of 13-cis RA by inhalation. The experimental groups were as follows (Table 4) :1.Vehicle (10/9 mix of PEG 300 and Ethanol with 0.5% of ascorbic acid and 0.5% phosphatidyl choline) control, day 1: rats (19) inhaled vehicle for 2 hr for one day; 2. High dose 13-cis RA, day 1: rats (22) inhaled a solution containing 13-cis-RA at a concentration of 104µg/liter (projected daily inhaled dose 10mg/kg body weight) for 2 hr for one day; 3. High dose 13-cis RA, day 17: rats (22) inhaled the same solution as in 2 for 2 hr each day for 17 days; 4. Vehicle control, day 28: rats (16) inhaled vehicle as for group 1 for a period of 28 days; 5. Middle dose 13-cis RA, day 28: rats (18) inhaled a solution containing 13-cis-RA at a concentration of 31µg/liter (projected daily inhaled dose 3mg/kg body weight) for 2 hr for each of 28 days.
# (§2) Male rats (n=23) (Sprague-Dawley from Charles River) were divided into six experimental groups and were given varying amounts of 13-cis RA through an inhalant apparatus once daily for different times each day for 14 days. The experimental groups were as follows (Table 1) :1.Vehicle control : rats (3) inhaled vehicle for 240 minutes; 2. Low dose 13-cis RA: rats (4) inhaled a solution containing 13-cis RA at a concentration of 62.2µg/liter (inhaled dose 115.0µg/kg body weight) in 5 minutes; 3. Low-Middle dose 13-cis RA : rats (4) inhaled a solution containing 13-cis RA at a concentration of 62.2µg/liter (inhaled dose 334.4µg/kg body weight) in 15 minutes; 4.Middle dose 13-cis RA: rats (4) inhaled a solution containing 13-cis RA at a concentration of 62.2µg/liter (inhaled dose 1012.3µg/kg body weight) in 45 minutes; 5. Middle-High dose 13-cis RA : rats (4) inhaled a solution containing 13-cis RA at a concentration of 62.2µg/liter (inhaled dose 2843.4µg/kg body weight) in 120 minutes; 6. High dose 13-cis RA : rats (4) inhaled a solution containing 13-cis RA at a concentration of 62.2µg/liter (inhaled dose 5935.6µg/kg body weight) in 240 minutes.
# (§3) Polyclonal rabbit anti-mouse antibodies against RAR, and (SANTA CRUZ Biotechnology Inc., San Francisco, CA) were used. BM Chemiluminescense Western Blotting Kit (Mouse/Rabbit) was used (Boehringer Mannheim Corporation, Indianapolis) for the Westerns.
# (§4) Tissues were collected, frozen in dry ice and kept at -70°C until used. 500mg aliquots were diced in small pieces and homogenized in 300µl of cold PBS, using the hand held homogenizer for 2~3 minutes. Sample and washes were centrifuged at 5000xg for 20 minutes. The pellet was suspended in 400 µl of ice-cold Buffer A [2µl 0.5M EDTA, 10µl 100mM EGTA, 50µl 100mM PMSF, 10µl 1M DTT, 10ml (10mM HEPES pH 7.9 + 10mM KCl)], and left at ice temperature for 15 minutes. 25 µl of 10% solution of NP-40 was added and samples were mixed in a vortex vigorously for 10 seconds. Samples were centrifuged at 14,000xg for 1 minute at 4°C and the pellet treated once more in this fashion (resuspended etc.). The supernatant was removed and 100µl of ice-cold Buffer C [4µl 0.5M EDTA, 20µl 100mM EGTA, 20µl 100mM PMSF, 2µl 1 M DTT, 2ml (20mM HEPES pH 7.9 + 0.4M NaCl)] was added. Pellets were resuspended by tapping gently on the bottom of the Eppendorf tubes. Samples were rocked vigorously in a bucket of ice on an orbital shaker for 30 minutes. Samples were centrifuged at 14,000 xg for 5 minutes at 4°C. Protein determination of supernatant was conducted by the Bradford method.
# (§5) Samples were prepared by adding one part of the Sample Buffer to one part of the sample and mixing well. Samples were heated at 95°C for 5 minutes to induce denaturation. 5µl of Rainbow Standard and 5µl ofBiotinylated Molecular Marker were added to parallel wells. 20µg protein per sample was loaded in each lane. Electrophoresis was performed with voltage set at 125V for about 1 ~ 1.5 hours. Gel transfer was executed at 25V for 2 hours. […]
# [2] = test system: RAR α; assay: as above; conditions: for upregulating expression of lung tissue RAR (α): daily deposited dose of 6.4mg/kg/day
# Method: as §1, §2, §3, §4, §5
# [3] = test system: RAR β; assay: as above; conditions: for upregulating expression of lung tissue RAR (β): daily deposited dose of 6.4mg/kg/day
# Method: as §1, §2, §3, §4, §5
# [4] = test system: TGase II; assay: TGase II assay of rat liver tissue after inhaled 13-cis RA (experiment B); conditions: for TGase II assay / TGase II assay DPM/µg protein: rat liver
# Method: as §2
# For liver tissue, a piece of approximately 100-400mg was used. Tissue was diced in small pieces and homogenized in approximately 2 volumes of scraping buffer for 2-3 minutes at 4°C. Samples were centrifuged at 14,000xg for 30 minutes at 4°C. The supernatant was removed and kept in ice until used.
# Enzyme assay mixtures were prepared by adding 80µl of SUBSTRATE mixture (322.8µl H2O, 120µl 0.5M NaBorate, 60µl 0.01M EDTA, 60µl 0.1M CaCl2, 6µl 1M DTT, 240µl dimethyl casein, 30µl Triton X-100, 1.2µl [^3H]-Putrescine, 120µl Putrescine) to 20µl sample, 20µl scraping buffer for blank control , 20 µl (18µl scraping buffer + 2µl TGase II) for positive control. Samples were mixed in 15ml tubes, the tubes were shaken before putting them into a 28°C water bath for 30 minutes. Reactions were slowed down in an ice bath. 80µl of the incubation mixture was adsorbed onto paper disks. These were immediately dropped into cold 10% TCA (0.1% Putrescine) and washed with agitation for 7 minutes, followed by 2 additional washes with 5% TCA (0.05% putrescine) for 5~7 minutes, and once more with cold (-20°C) 95% ethanol for 5 minutes. Paper disks were dried and placed into 5ml Aquasol, and counted in a Liquid Scintillation Counter. Protein concentration determination was conducted by the Bradford method.
# [5] = Body weight, mortality and toxicity of A/J mice exposed to isotretinoin aerosols
# Method: Mice were injected with one of three carcinogens and were exposed by inhalation in groups of 21 to three graded concentrations of isotretinoin or vehicle for 10 (urethane-treated mice) or 16 (NNK- and BaP-treated mice) weeks.
# Male A/J mice (Jackson Laboratories) 6-8 weeks old were quarantined a minimum of 7 days. […] At 9-10 weeks of age, the mice were administered single 0.2 ml doses (20 mg urethane in saline, 0.6 mg of NNK in saline, or 2 mg of BaP in tricaprylin) by intraperitoneal injection. Daily 45-min exposures to isotretinoin aerosol or vehicle were started the next day.
# Solutions were aerosolized using a Pari LC-plus nebulizer (Pari, Richmond, VA). Animals were exposed in nose-only exposure units designed to provide a fresh supply of the test atmosphere to each animal, independent from other animals. […] The units consisted of multi-tier modular sections, each tier containing eight exposure ports located peripherally around a central delivery plenum. During exposures, animals were restrained in unstoppered polycarbonate tubes (C&H Technologies, Westwood, NJ) through which a flow of aerosol, 350-500 ml/min per mouse, passed from the chamber. The tubes were tapered on one end to approximately fit the shape of the animal's head and the diameter of the cylindrical portion of the cone was such that the animals could not turn in the cones. Each cone was fastened to the inhalation chamber with the nose portion of the cone protruding through a gasket into the chamber, permitting the animal to breathe the test or control atmosphere emanating from within the central plenum.
# [6] = test system: liver RARs; assay: Western blot of rat liver samples after inhaled 13-cis RA
# Method: as §1
# as §2, with “minutes. […]” for “minutes.”
# [7] = daily deposited dose of 1.9mg/kg/day, day 28
# [8] = High: 240 minutes daily 14 Days, 1872µg/kg total deposited dose
# [9] = Low-Middle: 15 minutes daily 14 Days, 117µg/kg total deposited dose
# [10] = Middle-High: 120 minutes daily 14 Days, 936µg/kg total deposited dose
# [11] = Middle: 45 minutes daily 14 Days, 351µg/kg total deposited dose
smiles,measurement,setting,value
"CC1=C(/C=C/C(C)=C/C=C/C(C)=C\C(=O)O)C(C)(C)CCC1 [13-cis RA, 13-cis-Retinoic Acid]",lung RAR (γ) induced,[1]; [7],8.1 fold
same,upregulating expression of lung tissue RAR (γ),[1]; day 1,9.7 fold
same,upregulating expression of lung tissue RAR (γ),[1]; day 17,12.9 fold
same,lung RAR (α) induced,[2]; [7],4.7 fold
same,upregulating expression of lung tissue RAR (α),[2]; day 1,3.4 fold
same,upregulating expression of lung tissue RAR (α),[2]; day 17,4.2 fold
same,lung RAR (β) induced,[3]; [7],8.0 fold
same,upregulating expression of lung tissue RAR (β),[3]; day 1,7.2 fold
same,upregulating expression of lung tissue RAR (β),[3]; day 17,10.0 fold
same,effect on liver TGase II activity,"[4]; inhaled, up to 5.93mg/kg of inhaled dose",no significant effect
same,TGase II assay,[4]; [8],0.271 +/- 0.015 picomoles/µg protein/30 min and 0.271 ± 0.015 picomoles/µg protein/30 min
same,TGase II assay DPM/µg protein,[4]; [8],19719 DPM/µg protein
same,TGase II assay,[4]; [9],0.273 +/- 0.018 picomoles/µg protein/30 min and 0.273 ± 0.018 picomoles/µg protein/30 min
same,TGase II assay DPM/µg protein,[4]; [9],21448 DPM/µg protein
same,TGase II assay DPM/µg protein,"[4]; Low: 5 minutes daily 14 Days, 39µg/kg total deposited dose",22705 DPM/µg protein
same,TGase II assay,"[4]; Low: 5 minutes daily 14 Days, 39µg/kg total deposited dose, vehicle 0.260",0.289 +/- 0.007 picomoles/µg protein/30 min and 0.289 ± 0.007 picomoles/µg protein/30 min
same,TGase II assay,[4]; [10],0.269 +/- 0.015 picomoles/µg protein/30 min and 0.269 ± 0.015 picomoles/µg protein/30 min
same,TGase II assay DPM/µg protein,[4]; [10],20348 DPM/µg protein
same,TGase II assay,[4]; [11],0.313 +/- 0.025 picomoles/µg protein/30 min and 0.313 ± 0.025 picomoles/µg protein/30 min
same,TGase II assay DPM/µg protein,[4]; [11],24590 DPM/µg protein
same,tolerated until (mice began losing weight),[5]; mid dose,~ 12 wks
same,weights below those of vehicle controls,"[5]; mid dose, NNK- and BaP-treated mice, end of exposure",11%
same,mortality,"[5]; mouse, in vivo, inhaled or intranasal, 0.081 mg/kg, mid dose (2/63), read-out: mice died before the end of exposure",3%
same,mortality at 336 h,"[5]; mouse, in vivo, inhaled or intranasal, 2 mg/kg, high dose, daily exposures for the first two weeks, read-out: mice died",~35%
same,effect on liver RARs,"[6]; inhaled 13-cis RA, rats, summary statement",failed to have any significant effect on liver RARs; also recorded: has no effect on liver RARs
same,increase in liver RARs,"[6]; rat liver, experiment A (same rats as Fig 2A), not shown",failed to show any increase in RARs
same,response of liver RARs,"[6]; rat liver, experiment B, 5 to 240 minutes daily, 14 days, not shown",not responsive
